A value given as a limit tells only on which side of the number the result lay.

This data set concerns human liver microsomes, metabolic stability half-life. Kind of data set: NCATS Human Liver Microsomal (HLM) Stability Profiling. To be noted: higher = more stable; screened at 1 µM (by protocol). The text has this: Assay submitter (PI): Dr. Pranav Shah
NIH Center for Advancing Translational Sciences
Pharmacokinetic issues were the leading cause of drug attrition, accounting for approximately 40% of all cases before the turn of the century. To this end, several high-throughput in vitro assays like microsomal stability have been developed to evaluate the pharmacokinetic profiles of compounds in early stages of drug discovery. At NCATS, a single-point rat liver microsomal (RLM) stability assay is used as a Tier I assay, while human liver microsomal (HLM) stability is employed as a Tier II assay. While it is beneficial to have compound libraries screened for HLM stability, the increasing magnitude of hits routinely generated, and the time- and re-source-intensive nature of the assay makes it important to find alternatives. One strategy is to rely on in silico models that have been developed using data generated from these assays. Herein, we describe the development of an HLM stability prediction model using our in-house dataset of ~7,000 compounds, employing both traditional and advanced machine learning methods. Additionally, the strong correlation between our RLM and HLM data was further reinforced by the fact that our HLM model performance improved after adding RLM stability predictions as an input descriptor. […] The best model along with a subset of our dataset has been made publicly accessible on the NCATS@ADME website for the benefit of the greater drug discovery community.
Microsomal Stability Assay
The substrate depletion method, also called the in vitro t1/2 method was used to analyze test compounds. Incubation and liquid handling were carried out using a previously described method (Shah et al., 2016). Briefly, each reaction mixture (110 µL) consisted of a test article (1 µM), human liver microsomes (0.5 mg/mL), and NADPH regenerating system in phosphate buffer at pH 7.4. Samples were incubated in 384-well plates at 37 degrees C for 0, 5, 10, 15, 30 and 60 min. At each time point, 10 µL of the incubation mixture was aspirated into another 384-well plate which contained cold acetonitrile (ACN) with internal standard (albendazole). All plates were centrifuged at 3000 rpm for 20 min at 4 degrees C, and the supernatants were transferred to a 384-well injection plate. Sample quantification and analysis was performed using a previously described method (Shah et al., 2016, Siramshetty et al., 2020).
1: Shah, P. et al. An Automated High-Throughput Metabolic Stability Assay Using an Integrated High-Resolution Accurate Mass Method and Automated Data Analysis Software. Drug Metab Dispos 44, 1653-1661 (2016).
2: Siramshetty et al. Retrospective assessment of rat liver microsomal stability at NCATS: data and QSAR models. Sci Rep 26;10(1):20713 (2020).
Consider `O=C(O)Cc1ccc2oc(-c3ccc(NC(=O)/C=C/c4ccc(Br)cc4)c(F)c3)nc2c1`, for which the half-life is above 120 min.

For the compound `O=C(O)c1cn(C2CC2)c2cc(Cl)c(F)cc2c1=O`, the half-life was above 120 min.

Compound `CCN1CCC[C@H]1CNC(=O)c1c(O)c(Cl)cc(Cl)c1OC` came in with a half-life above 120 min.

`C[C@@]1(c2cc(-c3cncnc3)c(F)cc2F)CCSC(N)=N1` displayed a half-life above 120 min.

As to `Nc1ncnc2c1c(COc1cccc(Cl)c1)nn2C1CCOCC1`, the half-life was 39.9 min.

On to `Cc1ccccc1C(=O)Nc1ccc(C(=O)N2CCCC(O)c3cc(Cl)ccc32)c(C)c1` (stereo not given), for which the half-life was 13.9 min.

Take `COc1ccc(-c2cc(=S)ss2)cc1`: the half-life stood at 0.73 min.

In the case of `CC(C)CN1C(=O)c2cccn2CC1C(=O)N1CCN(C)CC1` (stereo not given), the half-life is 62.8 min.

In the case of `NC(=O)c1ccc(F)c2c1C[C@@H](N(C1CCC1)C1CCC1)CO2`, the half-life worked out at 15 min.

`Cc1c(C(=O)Nc2cccc(C(F)(F)F)c2)cc(-c2ccccc2)n1CCCN1CCOCC1` displayed a half-life of 8.06 min.

For the compound `O=Nc1c(-c2c(O)[nH]c3cc(Br)ccc23)[nH]c2ccccc12`, the half-life was found to be 19 min.

`Cc1c(C)n(Cc2ccccc2)c2ccc(C(=O)OCCN(C)C)cc12` yielded a half-life of 11.1 min.

Consider `COc1ccc(CN2CCC3(CC(C)=NO3)C2)cc1` (stereo not given), for which the half-life was found to be 19.2 min.

With `NC(=O)C1(N2CCCCC2)CCN(CCCC(=O)c2ccc(F)cc2)CC1`, the half-life turned out to be 101 min.

In turn, `Cc1ccc2c(c1)c1c(n2CCc2ccc(C)nc2)CCN(C)C1` gave a half-life of 8.67 min.

In the case of `CC(=O)[C@@]1(O)CC[C@H]2C3CCC4=CC(=O)CC[C@]4(C)C3CC[C@@]21C` (stereo not given in full), the half-life turned out to be 9.86 min.

As for `COc1ccc(-n2nc3c(N4CCCC(C(=O)NCc5ccccc5C)C4)nnc(C)c3c2C)cc1` (stereo not given), the half-life was determined as 2.48 min.

On to `COc1ccc(C2Nc3ccccc3C(=O)N2Cc2ccco2)cc1COc1ccc(NC(C)=O)cc1` (stereo not given), for which the half-life came to 2.15 min.

Consider `Cc1ccccc1C(C(=O)NC1CCCCC1)N(C(=O)CNc1ccc(C#N)cc1)c1cccc(F)c1` (stereo not given), for which the half-life is 2.58 min.

Regarding `COc1ccc(C2c3c(oc4ccc(Cl)cc4c3=O)C(=O)N2CCCN(C)C)cc1OC` (stereo not given), the half-life was above 120 min.

Compound `CNC(=O)c1ccc(N2C(=S)N(c3cnc(C#N)c(C(F)(F)F)c3)C(=O)C23CCC3)cc1F` came in with a half-life above 120 min.

Turning to `COc1cc(Nc2nc3ccccc3nc2NS(=O)(=O)c2ccc(NC(=O)c3ccc(OC)c(C)c3)cc2)cc(OC)c1`, the half-life is above 120 min.

Regarding `CCCOc1ccc(-c2nc(OC)c3ccccc3n2)cc1`, the half-life was found to be 14.7 min.

As for `CCOC(=O)[C@H](CCc1ccccc1)N[C@H]1CCCN2CCC[C@@H](C(=O)O)N2C1=O`, the half-life worked out at 16.7 min.

Compound `Cc1cc(C)cc(-c2cnc3cc(Cl)c(-c4cccc(O)c4)cc3c2OCCCN)c1` registered a half-life of 25.3 min.

`O=C(O)c1ccc(Nc2ncc3c(n2)-c2ccc(Cl)cc2C(c2c(F)cccc2F)=NC3)cc1` yielded a half-life of 46.9 min.

The compound `COc1ccc(-c2ccc3ncc4c(c3c2)n(-c2ccc(N3CCNCC3)c(C(F)(F)F)c2)c(=O)n4C)cn1` had a half-life of 36.3 min.

In turn, `CCc1c(O)cc(O)c(C(=O)c2ccc(OCCN3CCOCC3)c(OC)c2)c1CC(=O)N(CCOC)CCOC` showed a half-life of 41.4 min.

`Cc1cccc(N2CCN(C(=O)c3cccn3-c3nnc(N4CCCCC4)s3)CC2)c1C` yielded a half-life of 3.17 min.

`CS(=O)(=O)c1ccc([C@@H](O)[C@@H](CO)NC(=O)C(Cl)Cl)cc1` gave a half-life above 120 min.

As to `CCN1CCN(C(=O)c2cc(-c3ccccc3OC)c3nncn3n2)CC1`, the half-life turned out to be 54.7 min.

`CCc1ccc(C(=O)C(C)CN2CCCCC2)cc1` (stereo not given) showed a half-life of 4.87 min.

In turn, `CCCc1nc(C(C)(C)O)c(C(=O)O)n1Cc1ccc(-c2ccccc2-c2nn[nH]n2)cc1` had a half-life above 120 min.

For the compound `CCN1CCCC1=O`, the half-life is above 120 min.

Compound `COc1cc(C(=O)N2CCCCCCC2)cc(OC)c1OC` registered a half-life of 29.3 min.

With `N[C@@H](CC(=O)Nc1ccc(Oc2cc(F)c(F)cc2Br)cc1)C(=O)O`, the half-life is above 120 min.

Consider `COc1ccc(CCO[C@@H]2CCCC[C@H]2N2CC[C@@H](O)C2)cc1OC`, for which the half-life is above 120 min.

The compound `C=CCOC1=C(OCC(O)CNC(C)C)CCCC1` (stereo not given) gave a half-life above 120 min.

Take `CCOP(=S)(Oc1cnc(C(C)(C)C)nc1)OC(C)C` (stereo not given): the half-life was determined as 11.1 min.

`C#CCN(Cc1cc2c(=O)n(C)c(CN3CCN(C)CC3)nc2cc1Cl)c1ccc(C(=O)NCc2cccnc2)cc1` came in with a half-life of 4.83 min.

In turn, `Cc1ccc(C(=O)c2cc(O)c(O)c([N+](=O)[O-])c2)cc1` displayed a half-life of 34.1 min.

Turning to `COc1ccc(-c2ccn(CC[C@](C)(C(=O)NO)S(C)(=O)=O)c(=O)c2)c(F)c1`, the half-life was above 120 min.

Compound `Fc1ccccc1-c1nc2ccn(Cc3ccc(-c4ccc(C(F)(F)F)cc4C(F)(F)F)nn3)cc-2n1` returned a half-life above 120 min.

With `Cc1cccc(C)c1OCC(C)N` (stereo not given), the half-life worked out at 114 min.

Compound `CCCCCCCCCCCCCCCCCCN(C)C` yielded a half-life above 120 min.

Turning to `C[C@]12Cc3cn[nH]c3C[C@@H]1CC[C@@H]1[C@@H]2CC[C@@]2(C)[C@H]1CC[C@]2(C)O`, the half-life is 24 min.

On to `CCc1nc(C(N)=O)c(Nc2ccc(N3CCC(N4CCN(C)CC4)CC3)c(OC)c2)nc1NC1CCOCC1`, for which the half-life was above 120 min.

Turning to `COc1cc2nc(Cl)nc(N)c2cc1OC`, the half-life stood at 105 min.

Compound `CCN(CC)C(=O)c1ccc(Nc2nc(OCC3CCCCC3)c3[nH]cnc3n2)cc1` gave a half-life of 8.96 min.

The compound `O=[N+]([O-])c1cccc(S(=O)(=O)NCCNS(=O)(=O)c2cccc([N+](=O)[O-])c2)c1` gave a half-life of 52.3 min.

For `CC1=C2[C@H]3OC(=O)[C@@H](C)[C@@H]3CC[C@@]2(C)C=CC1=O`, the half-life is above 120 min.

With `Cc1cc(CN)cc(C)c1NC(=O)c1ccc(-c2cc(Cl)ccc2Cl)o1`, the half-life is above 120 min.

As for `CC[C@]1(O)C[C@@H]2CN(CCc3c([nH]c4ccccc34)[C@@](C(=O)OC)(c3cc4c(cc3OC)N(C)[C@H]3[C@@](O)(C(=O)OC)[C@H](OC(C)=O)[C@]5(CC)C=CCN6CC[C@]43[C@@H]65)C2)C1`, the half-life was found to be 54.6 min.

For the compound `COc1ccc2nc(S(=O)Cc3ncc(C)c(OC)c3C)[nH]c2c1` (stereo not given), the half-life is above 120 min.

For `CS(=O)(=O)c1cccc(CNc2nc(Nc3ccc4c(c3)CCC(=O)N4)ncc2C(F)(F)F)c1`, the half-life is above 120 min.

Consider `CC(C)(C)c1ccc(CNC(=S)NCc2ccc(NS(C)(=O)=O)c(F)c2)cc1`, for which the half-life stood at 43 min.

As to `CCC1=c2cc(OC(=O)N3CCC(N4CCCCC4)CC3)ccc2=NC2=C3C=C4C(COC(=O)[C@]4(O)CC)C(=O)N3CC21` (stereo not given in full), the half-life was above 120 min.

With `CC1=NOC2(CCN(Cc3ccc(C#N)cc3)C2)C1` (stereo not given), the half-life was above 120 min.

`CC(C)NC(=O)COc1cccc(-c2nc(Nc3ccc4[nH]ncc4c3)c3ccccc3n2)c1`: the half-life stood at 23.4 min.

`CC1(C#N)CCN(c2c(C(=O)N3CCC(S(C)(=O)=O)CC3)cnc3cc(F)c(F)cc23)CC1`: the half-life was above 120 min.

Regarding `CCN(CC)CCNc1ccc(CO)c2sc3ccccc3c(=O)c12`, the half-life is 90.3 min.

Turning to `COc1ccc(Oc2c(Cl)cnn(-c3cc(C)cc(C)c3)c2=O)cc1`, the half-life turned out to be 17.4 min.

Compound `Cc1cc(C(=O)N2CCCCc3ccccc32)ccc1CNC(=O)N1CCC[C@H]1C(=O)N(C)C` registered a half-life of 6.54 min.

The compound `Cc1cc(O)c(-c2ccc([C@@H](C)CN(C)C)cc2)c2c1[nH]c(=O)c1sccc12` came in with a half-life of 95.3 min.

`Cc1ccc(S(=O)(=O)Nc2nc3n(n2)C(c2ccc(F)cc2)C=C(c2ccccc2)N3)cc1` (stereo not given) showed a half-life above 120 min.

Consider `O=C(O)c1ccc(CN2CCOC[C@H]2c2ncc(-c3ccc(F)cc3)[nH]2)cc1`, for which the half-life is above 120 min.

With `NC(=O)N1CCC(CC(=O)N2CCC(C3c4ncc(Br)cc4CCc4cc(Cl)cc(Br)c43)CC2)CC1` (stereo not given), the half-life came to 5.45 min.

`O=C(Cn1cc(SCc2cccc(Cl)c2)c2ccccc21)N1CCCCC1` came in with a half-life of 0.84 min.

`CC(=O)Nc1nnc(S(N)(=O)=O)s1` displayed a half-life above 120 min.

As for `CCOCCCNC(=O)C(=O)Nc1c2c(nn1-c1ccc(OC)cc1)CSC2`, the half-life stood at 42.3 min.

For `CCN1CCCC1CNC(=O)C(O)(c1ccccc1)c1ccccc1` (stereo not given), the half-life was above 120 min.

Turning to `CCN(CC)C(=O)C(c1ccccc1)N1CCN(c2ccc(NC(=O)c3ccccc3-c3cccnc3)cc2F)CC1` (stereo not given), the half-life is 4.93 min.

`CC(C)CC(N(C)C)C1(c2ccc(Cl)cc2)CCC1` (stereo not given) had a half-life of 3.57 min.

The compound `COc1cc(Nc2ncc3c(n2)-c2ccc(Cl)cc2C(c2c(F)cccc2OC)=NC3)ccc1C(=O)O` came in with a half-life above 120 min.

On to `Nc1nccs1`, for which the half-life is 53.7 min.

These data come from PubChem BioAssay AID1963597 (National Center for Advancing Translational Sciences (NCATS), 2024).
